Activity calls are given as the source filed them. The rule behind the calls is not given here.
Assays:
MCF7 [1] = assay: Inhibition of RhoGEF in human MCF7 cells derived mammospheres assessed as inhibition of RhoA-mediated phospho-MLC formation at 2.5 uM in presence of 2.5 uM Rhosin/G04 incubated for 24 hrs by densitometry; type: cell-based
MCF7 [2] = assay: Inhibition of RhoGEF in human MCF7 cells derived mammospheres assessed as inhibition of 10% calf serum-induced RhoA-GTP formation at 2.5 uM in presence of 2.5 uM Rhosin/G04 incubated for 24 hrs by densitometry relative to control; type: cell-based
MCF7 [3] = assay: Inhibition of RhoGEF in human MCF7 cells derived mammospheres assessed as inhibition of 10% calf serum-induced RhoA-GTP formation by measuring relative RhoA-GTP level at 2.5 uM in presence of 2.5 uM Rhosin/G04 incubated for 24 hrs by densitometry (reference value: 1); type: cell-based
MCF7 [4] = assay: Inhibition of cell invasion of human MCF7 cells at 10 to 50 uM by Matrigel-coated transwell based assay; type: functional
MCF7 [5] = assay: Inhibition of cell migration of human MCF7 cells at 2.5 to 30 uM in presence of 2.5 to 30 uM Rhosin/G04; type: functional, cell-based
MCF7 [6] = assay: Growth inhibition of human MCF7 cells at 2.5 to 15 uM in presence of 2.5 to 15 uM Rhosin/G04; type: functional, cell-based
Mus musculus [7] = organism: Mus musculus; assay: Inhibition of RhoGEF in mouse NIH/3T3 cells assessed as inhibition of 10% calf serum-induced Rac1-GTP formation by measuring relative Rac1-GTP level at 50 uM incubated for 24 hrs by densitometry (reference value: 1); type: cell-based
Mus musculus [8] = organism: Mus musculus; assay: Inhibition of RhoGEF in mouse NIH/3T3 cells assessed as inhibition of 10% calf serum-induced RhoA-GTP formation by measuring relative RhoA-GTP level at 5 uM in presence of 5 uM Rhosin/G04 incubated for 24 hrs by densitometry (reference value: 1); type: cell-based
Mus musculus [9] = organism: Mus musculus; assay: Inhibition of RhoGEF in mouse NIH/3T3 cells assessed as inhibition of 10% calf serum-induced RhoA-GTP formation by measuring relative RhoA-GTP level at 10 uM incubated for 24 hrs by densitometry (reference value: 1); type: cell-based
[10] = target: T1, RhoGEF 1/Transforming protein RhoA (Homo sapiens) (UniProt P61586+Q92888); assay: Binding affinity to human LARG (765 to 1138 residues) DH-PH module expressed in mouse NIH/3T3 cells assessed as reduction in LARG binding to human full length RhoA (1 to 193 residues) by measuring relative LARG binding level at 5 uM in presence of 5 uM Rhosin/G04 pull-down assay (reference value: 1 No unit); type: cell-based
[11] = target: T1, RhoGEF 1/Transforming protein RhoA (Homo sapiens); assay: Binding affinity to human LARG (765 to 1138 residues) DH-PH module expressed in mouse NIH/3T3 cells assessed as reduction in LARG binding to human full length RhoA (1 to 193 residues) by measuring relative LARG binding level at 10 uM pull-down assay (reference value: 1 No unit); type: cell-based
Mus musculus [12] = organism: Mus musculus; assay: Inhibition of RhoGEF in mouse NIH/3T3 cells assessed as inhibition of 10% calf serum-induced RhoA-GTP formation by measuring reduction in RhoA-GTP level at 5 uM in presence of 5 uM Rhosin/G04 incubated for 24 hrs by densitometry relative to control; type: cell-based
[13] = target: T2, Rho guanine nucleotide exchange factor 12 (Homo sapiens, UniProt Q9NZN5); assay: Inhibition of human LARG (765 to 1138 residues) RhoGEF binding to human full length RhoA (1 to 193 residues) in presence of Rhosin/G04
T2 sequence (Q9NZN5 whole entry, the tested form may be a part): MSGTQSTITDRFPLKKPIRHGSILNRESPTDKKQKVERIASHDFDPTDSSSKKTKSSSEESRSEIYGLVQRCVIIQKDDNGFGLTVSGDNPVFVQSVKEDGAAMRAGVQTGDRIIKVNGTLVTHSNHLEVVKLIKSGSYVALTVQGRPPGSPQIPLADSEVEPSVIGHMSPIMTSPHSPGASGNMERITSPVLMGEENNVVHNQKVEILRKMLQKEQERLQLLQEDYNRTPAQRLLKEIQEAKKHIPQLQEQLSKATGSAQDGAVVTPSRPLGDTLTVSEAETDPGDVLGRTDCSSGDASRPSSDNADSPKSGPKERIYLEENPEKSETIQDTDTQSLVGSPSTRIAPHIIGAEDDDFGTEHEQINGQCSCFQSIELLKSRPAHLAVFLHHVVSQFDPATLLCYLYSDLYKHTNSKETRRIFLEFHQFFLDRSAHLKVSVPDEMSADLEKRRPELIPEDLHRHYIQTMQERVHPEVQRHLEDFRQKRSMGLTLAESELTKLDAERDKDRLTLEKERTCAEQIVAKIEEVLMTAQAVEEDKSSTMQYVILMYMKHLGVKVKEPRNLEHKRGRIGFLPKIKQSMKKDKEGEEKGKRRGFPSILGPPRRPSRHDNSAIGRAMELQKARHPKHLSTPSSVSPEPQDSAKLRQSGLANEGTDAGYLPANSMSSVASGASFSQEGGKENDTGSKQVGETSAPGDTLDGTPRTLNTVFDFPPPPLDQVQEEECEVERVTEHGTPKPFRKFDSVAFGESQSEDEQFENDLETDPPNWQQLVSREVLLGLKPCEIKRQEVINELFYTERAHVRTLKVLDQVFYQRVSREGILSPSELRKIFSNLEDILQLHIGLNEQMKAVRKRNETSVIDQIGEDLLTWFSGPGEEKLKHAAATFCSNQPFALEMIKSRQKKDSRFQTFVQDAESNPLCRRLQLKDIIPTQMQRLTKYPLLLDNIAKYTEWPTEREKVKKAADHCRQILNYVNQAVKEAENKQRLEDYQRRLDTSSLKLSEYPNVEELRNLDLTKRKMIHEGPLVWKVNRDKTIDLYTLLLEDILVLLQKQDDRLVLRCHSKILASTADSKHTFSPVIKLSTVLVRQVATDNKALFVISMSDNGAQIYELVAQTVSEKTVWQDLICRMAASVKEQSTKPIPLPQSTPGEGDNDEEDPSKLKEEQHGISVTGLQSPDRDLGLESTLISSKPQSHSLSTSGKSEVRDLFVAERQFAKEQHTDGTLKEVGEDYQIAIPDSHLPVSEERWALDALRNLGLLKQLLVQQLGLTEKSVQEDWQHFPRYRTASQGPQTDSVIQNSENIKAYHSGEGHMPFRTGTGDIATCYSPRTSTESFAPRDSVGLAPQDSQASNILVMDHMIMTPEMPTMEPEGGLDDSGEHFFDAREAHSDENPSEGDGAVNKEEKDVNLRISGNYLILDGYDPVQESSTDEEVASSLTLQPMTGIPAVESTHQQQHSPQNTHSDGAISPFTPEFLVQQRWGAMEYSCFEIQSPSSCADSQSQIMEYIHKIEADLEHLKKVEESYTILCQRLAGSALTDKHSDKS

Mus musculus [14] = organism: Mus musculus; assay: Inhibition of RhoGEF in mouse NIH/3T3 cells assessed as inhibition of 10% calf serum-induced Cdc42-GTP formation by measuring Cdc42-GTP level at 10 uM incubated for 24 hrs by densitometry relative to control (reference value: 3.25); type: cell-based
Mus musculus [15] = organism: Mus musculus; assay: Inhibition of RhoGEF in mouse NIH/3T3 cells assessed as inhibition of 10% calf serum-induced RhoA-GTP formation by measuring RhoA-GTP level at 10 uM incubated for 24 hrs by densitometry relative to control (reference value: 2.15); type: cell-based
Mus musculus [16] = organism: Mus musculus; assay: Inhibition of RhoGEF-mediated RhoA signaling in mouse NIH/3T3 cells assessed as inhibition of serum -induced phospho-MLC formation at 10 to 30 uM incubated for 24 hrs by densitometry; type: cell-based
Mus musculus [17] = organism: Mus musculus; assay: Inhibition of RhoGEF-mediated Cdc42 signaling in mouse NIH/3T3 cells assessed as reduction in Bradykinin-stimulated Cdc42-mediated filopodia formation at 10 to 30 uM; type: cell-based
Homo sapiens [18] = organism: Homo sapiens; assay: Inhibition of GST-tagged human TrioN (1284 to 1711 residues) RhoGEF-catalyzed guanine nucleotide-exchange reaction of human full length Rac1 (1 to 192 residues) by measuring inhibition of the GDP dissociation from Rac1 at 0.76 to 250000 nM by Alexa 647 fluorescence dye based GDP/GTP exchange assay
[19] = target: Rho guanine nucleotide exchange factor 12 (Homo sapiens, UniProt Q9NZN5, N983A); assay: Binding affinity to recombinant human LARG (765 to 1138 residues) N983A mutant by microscale thermophoresis analysis
[20] = target: T2, Rho guanine nucleotide exchange factor 12; assay: Binding affinity to recombinant human LARG (765 to 1138 residues) containing DH-PH catalytic module by microscale thermophoresis analysis
[21] = target: T1, RhoGEF 1/Transforming protein RhoA (Homo sapiens); assay: Inhibition of GFP-tagged human p115 RhoGEF DH-PH module expressed in mouse NIH/3T3 cells assessed as reduction in human full length RhoA (1 to 193 residues) interaction with p115 RhoGEF at 30 to 50 uM incubated for 1 hr by Western blot analysis based GST-RhoA pull-down assay; type: cell-based
Homo sapiens [22] = organism: Homo sapiens; assay: Inhibition of GST-tagged human TrioN RhoGEF (1284 to 1711 residues) expressed in mouse NIH/3T3 cells assessed as reduction in human full length Rac1 (1 to 192 residues) interaction with TrioN RhoGEF at 50 to 200 uM incubated for 1 hr by Western blot analysis based pull-down assay; type: cell-based
[23] = target: Rho-associated protein kinase 2/Transforming protein RhoA (Homo sapiens) (UniProt O75116+P61586); assay: Inhibition of human ROCK2 expressed in mouse NIH/3T3 cells assessed as reduction in human full length RhoA (1 to 193 residues) interaction with ROCK2 at 50 to 200 uM incubated for 1 hr by Western blot analysis based His-RhoA pull-down assay; type: cell-based
Rho-associated protein kinase 2/Transforming protein RhoA (Homo sapiens), sequence (O75116 whole entry, looked up, the tested form may be a part): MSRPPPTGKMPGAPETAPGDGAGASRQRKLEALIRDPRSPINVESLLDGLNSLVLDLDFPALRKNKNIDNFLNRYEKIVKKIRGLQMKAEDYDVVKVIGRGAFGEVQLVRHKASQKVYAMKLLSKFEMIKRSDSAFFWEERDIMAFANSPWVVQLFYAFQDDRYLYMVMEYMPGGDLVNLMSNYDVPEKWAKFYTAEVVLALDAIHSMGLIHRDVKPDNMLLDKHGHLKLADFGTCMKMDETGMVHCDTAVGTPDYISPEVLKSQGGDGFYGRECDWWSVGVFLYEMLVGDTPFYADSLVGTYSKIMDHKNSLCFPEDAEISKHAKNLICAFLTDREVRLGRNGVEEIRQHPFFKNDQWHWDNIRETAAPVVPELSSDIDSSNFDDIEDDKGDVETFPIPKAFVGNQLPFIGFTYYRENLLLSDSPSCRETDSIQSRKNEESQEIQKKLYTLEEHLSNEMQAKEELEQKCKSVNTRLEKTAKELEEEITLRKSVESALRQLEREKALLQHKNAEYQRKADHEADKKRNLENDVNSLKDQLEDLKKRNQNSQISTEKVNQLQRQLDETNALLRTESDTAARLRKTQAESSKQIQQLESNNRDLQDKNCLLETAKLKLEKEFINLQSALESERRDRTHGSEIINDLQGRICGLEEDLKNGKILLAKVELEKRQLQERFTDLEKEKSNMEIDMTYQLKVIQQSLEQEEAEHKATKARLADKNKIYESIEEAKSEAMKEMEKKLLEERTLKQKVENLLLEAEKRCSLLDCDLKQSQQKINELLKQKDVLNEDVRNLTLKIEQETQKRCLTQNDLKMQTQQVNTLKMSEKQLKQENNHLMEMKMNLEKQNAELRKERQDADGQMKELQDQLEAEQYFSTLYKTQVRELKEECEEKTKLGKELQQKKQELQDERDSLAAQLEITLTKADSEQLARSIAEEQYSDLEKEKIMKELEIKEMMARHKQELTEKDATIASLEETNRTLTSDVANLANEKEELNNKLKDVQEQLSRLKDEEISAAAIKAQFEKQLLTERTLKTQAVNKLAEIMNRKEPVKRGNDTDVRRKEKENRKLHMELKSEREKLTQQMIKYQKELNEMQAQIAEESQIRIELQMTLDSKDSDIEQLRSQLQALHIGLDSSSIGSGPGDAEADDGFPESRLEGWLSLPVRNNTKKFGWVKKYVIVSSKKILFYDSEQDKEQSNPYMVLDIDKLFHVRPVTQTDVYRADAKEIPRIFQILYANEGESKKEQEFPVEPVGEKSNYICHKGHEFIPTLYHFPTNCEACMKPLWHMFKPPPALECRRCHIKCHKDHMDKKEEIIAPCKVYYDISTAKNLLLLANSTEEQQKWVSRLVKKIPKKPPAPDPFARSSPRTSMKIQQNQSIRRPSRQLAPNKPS
Rho-associated protein kinase 2/Transforming protein RhoA (Homo sapiens), sequence (P61586 whole entry, looked up, the tested form may be a part): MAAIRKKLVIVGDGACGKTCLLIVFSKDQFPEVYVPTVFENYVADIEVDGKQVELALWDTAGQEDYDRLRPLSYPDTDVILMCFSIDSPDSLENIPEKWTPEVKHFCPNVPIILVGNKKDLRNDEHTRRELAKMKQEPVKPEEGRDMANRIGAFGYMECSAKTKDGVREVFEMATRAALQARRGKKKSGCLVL

[24] = target: Rho GTPase-activating protein 35/Transforming protein RhoA (Homo sapiens) (UniProt P61586+Q9NRY4); assay: Inhibition of human p190 expressed in mouse NIH/3T3 cells assessed as reduction in human full length RhoA (1 to 193 residues) interaction with p190 at 50 to 100 uM incubated for 1 hr by Western blot analysis based His-RhoA pull-down assay; type: cell-based
[25] = target: Triple functional domain protein (Homo sapiens, UniProt O75962); assay: Binding affinity to GST-tagged human TrioN RhoGEF (1284 to 1711 residues) by microscale thermophoresis analysis
[26] = target: Intersectin-1 (Homo sapiens) (UniProt Q15811); assay: Binding affinity to GST-tagged human intersectin-1 RhoGEF at 1 to 100000 nM by microscale thermophoresis analysis
Intersectin-1 (Homo sapiens), sequence (Q15811 whole entry): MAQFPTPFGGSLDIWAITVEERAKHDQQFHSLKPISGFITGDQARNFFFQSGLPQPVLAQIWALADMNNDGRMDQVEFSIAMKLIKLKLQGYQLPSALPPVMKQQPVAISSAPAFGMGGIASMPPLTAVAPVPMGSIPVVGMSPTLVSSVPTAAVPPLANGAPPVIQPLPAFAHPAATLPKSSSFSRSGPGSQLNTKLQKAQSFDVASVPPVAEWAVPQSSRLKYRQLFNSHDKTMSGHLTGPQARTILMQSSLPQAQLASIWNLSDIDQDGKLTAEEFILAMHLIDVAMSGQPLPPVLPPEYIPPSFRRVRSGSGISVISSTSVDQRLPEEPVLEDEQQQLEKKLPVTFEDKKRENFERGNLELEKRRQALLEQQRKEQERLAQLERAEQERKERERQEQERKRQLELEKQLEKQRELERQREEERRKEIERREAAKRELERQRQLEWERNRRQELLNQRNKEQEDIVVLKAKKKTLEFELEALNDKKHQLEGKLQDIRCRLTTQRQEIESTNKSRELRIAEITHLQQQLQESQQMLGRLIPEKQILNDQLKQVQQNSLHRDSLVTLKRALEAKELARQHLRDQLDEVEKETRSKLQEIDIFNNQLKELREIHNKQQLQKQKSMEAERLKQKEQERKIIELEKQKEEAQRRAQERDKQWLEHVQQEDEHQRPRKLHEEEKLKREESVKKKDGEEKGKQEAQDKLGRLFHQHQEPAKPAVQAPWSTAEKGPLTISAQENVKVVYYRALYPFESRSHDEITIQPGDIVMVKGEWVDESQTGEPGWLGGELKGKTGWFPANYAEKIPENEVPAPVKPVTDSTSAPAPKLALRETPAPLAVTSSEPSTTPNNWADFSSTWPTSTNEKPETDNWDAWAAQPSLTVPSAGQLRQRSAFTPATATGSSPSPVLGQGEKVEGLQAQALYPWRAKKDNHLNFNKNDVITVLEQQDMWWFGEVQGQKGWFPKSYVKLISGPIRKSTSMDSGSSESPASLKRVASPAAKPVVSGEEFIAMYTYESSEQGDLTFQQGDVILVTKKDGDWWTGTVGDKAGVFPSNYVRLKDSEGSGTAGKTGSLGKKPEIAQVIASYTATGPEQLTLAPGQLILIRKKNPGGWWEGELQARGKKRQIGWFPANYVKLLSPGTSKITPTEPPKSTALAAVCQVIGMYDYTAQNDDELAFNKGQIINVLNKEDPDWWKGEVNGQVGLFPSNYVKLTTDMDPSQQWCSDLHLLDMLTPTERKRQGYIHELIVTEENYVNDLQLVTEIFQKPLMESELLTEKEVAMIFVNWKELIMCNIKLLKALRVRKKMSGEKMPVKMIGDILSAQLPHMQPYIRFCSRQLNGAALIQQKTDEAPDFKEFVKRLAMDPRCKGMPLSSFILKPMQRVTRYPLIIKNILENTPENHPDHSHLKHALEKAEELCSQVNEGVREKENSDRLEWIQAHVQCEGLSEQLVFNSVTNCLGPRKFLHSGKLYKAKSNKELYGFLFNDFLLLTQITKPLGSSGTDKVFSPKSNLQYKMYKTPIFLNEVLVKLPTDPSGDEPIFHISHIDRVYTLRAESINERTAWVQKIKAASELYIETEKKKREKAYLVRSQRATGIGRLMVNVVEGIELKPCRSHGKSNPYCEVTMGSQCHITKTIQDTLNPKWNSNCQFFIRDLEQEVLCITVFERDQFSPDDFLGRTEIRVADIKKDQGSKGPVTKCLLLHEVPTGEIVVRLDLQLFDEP

fold change (FC) [10]: 0.28 | fold change (FC) [11]: 0.61 | IC50 [13]: 1 µM | inhibition (Homo sapiens [18]): inactive | Kd [19]: > 500 µM | Kd [20]: 0.065 to 0.076 µM | inhibition [21]: Active | inhibition [23]: inactive | inhibition [24]: inactive | Kd [25]: 774 µM | Activity [26]: inactive
SMILES: Cc1cccc(COc2cccc(/C=C3\C(=O)NN(c4ccccc4)C3=O)c2)c1
inhibition (MCF7 [1]): 70% | inhibition (MCF7 [2]): 70% | fold change (FC) (MCF7 [3]): 0.27 | inhibition (MCF7 [4]): Active | inhibition (MCF7 [5]): Active | growth inhibition (GI) (MCF7 [6]): Active | fold change (FC) (Mus musculus [7]): 0.93 | fold change (FC) (Mus musculus [8]): 0.46 | fold change (FC) (Mus musculus [9]): 0.8 | inhibition (Mus musculus [12]): 80% | fold change (FC) (Mus musculus [14]): 2.23 | fold change (FC) (Mus musculus [15]): 1.09 | inhibition (Mus musculus [16]): Active | inhibition (Mus musculus [17]): inactive | inhibition (Homo sapiens [22]): inactive

Source: ChEMBL document CHEMBL4419173, “Small-molecule inhibitors targeting g-protein-coupled rho guanine nucleotide exchange factors” (2014)
